{
  "source": "patent US20080167314A1",
  "about": "“Condensed Imidazole Compound And Use Thereof” (priority 2004, published 2008)",
  "note": "Counter-ions that a name gives are not always drawn.",
  "data": [
    {"smiles": "Cc1cc(-c2nc3cccnn3c2-c2ccnc(NC(=O)NCCCCO)c2)ccc1F.Cl", "values": [
      {"measurement": "melting point", "result": "188 to 189", "unit": "°C"}
    ]},
    {"smiles": "Cc1cc(-c2nc3cccnn3c2-c2ccnc(NC(=O)N3CCOCC3)c2)ccc1F.Cl", "values": [
      {"measurement": "melting point", "result": "164 to 166", "unit": "°C"}
    ]},
    {"smiles": "Cc1cc(-c2nc3cccnn3c2-c2ccnc(NC(=O)N3CCC(O)CC3)c2)ccc1F.Cl", "values": [
      {"measurement": "melting point", "result": "156 to 157", "unit": "°C"}
    ]},
    {"smiles": "Cc1cc(-c2nc3cccnn3c2-c2ccnc(NC(=O)c3ccc(Cl)cc3)c2)ccc1F.Cl", "values": [
      {"measurement": "melting point", "result": "264 to 266", "unit": "°C"}
    ]},
    {"smiles": "COc1ccc(C(=O)Nc2cc(-c3c(-c4cccc(Cl)c4)nc4cccnn34)ccn2)cc1.Cl", "values": [
      {"measurement": "melting point", "result": "236 to 238", "unit": "°C"}
    ]},
    {"smiles": "Cc1cc(-c2nc3cccnn3c2-c2ccnc(NC(=O)c3ccc(Cl)nc3)c2)ccc1F.Cl", "values": [
      {"measurement": "melting point", "result": "250 to 251", "unit": "°C"}
    ]},
    {"smiles": "Cc1cc(-c2nc3cccnn3c2-c2ccnc(NC(=O)c3ccc(Cl)cc3)c2)ccc1F", "note": "(as salt: methanesulfonate) [Example 62, 4-Chloro-N-{4-[2-(4-fluoro-3-methylphenyl)imidazo[1,2-b]pyridazin-3-yl]pyridin-2-yl}benzamide methanesulfonate]", "values": [
      {"measurement": "melting point", "result": "239 to 241", "unit": "°C"}
    ]},
    {"smiles": "COc1ccc2nc(-c3cccc(C)c3)c(-c3ccnc(NC4CCCCC4)c3)n2n1", "note": "[Example 9, N-Cyclohexyl-4-[6-methoxy-2-(3-methylphenyl)imidazo[1,2-b]pyridazin-3-yl]pyridin-2-amine]", "values": [
      {"measurement": "melting point", "result": "188 to 189", "unit": "°C"}
    ]},
    {"smiles": "CSc1ccc2nc(-c3cccc(C)c3)c(-c3ccnc(NC4CCCCC4)c3)n2n1", "note": "[Example 10, N-Cyclohexyl-4-[2-(3-methylphenyl)-6-(methylthio)imidazo[1,2-b]pyridazin-3-yl]pyridin-2-amine]", "values": [
      {"measurement": "melting point", "result": "150 to 151", "unit": "°C"}
    ]},
    {"smiles": "Cc1cccc(-c2nc3ccc(S(C)(=O)=O)nn3c2-c2ccnc(NC3CCCCC3)c2)c1", "note": "[Example 11, N-Cyclohexyl-4-[2-(3-methylphenyl)-6-(methylsulfonyl)imidazo[1,2-b]pyridazin-3-yl]pyridin-2-amine]", "values": [
      {"measurement": "melting point", "result": "196 to 197", "unit": "°C"}
    ]},
    {"smiles": "Cc1cccc(-c2nc3ccc(Cl)nn3c2-c2ccnc(N)c2)c1", "note": "[Example 12, 4-[6-Chloro-2-(3-methylphenyl)imidazo[1,2-b]pyridazin-3-yl]pyridin-2-amine]", "values": [
      {"measurement": "melting point", "result": "247 to 248", "unit": "°C"}
    ]},
    {"smiles": "Cc1cccc(-c2nc3cccnn3c2-c2ccnc(N)c2)c1", "note": "[Example 14, 4-[2-(3-Methylphenyl)imidazo[1,2-b]pyridazin-3-yl]pyridin-2-amine]", "values": [
      {"measurement": "melting point", "result": "188 to 189", "unit": "°C"}
    ]},
    {"smiles": "COc1ccc(C(=O)Nc2cc(-c3c(-c4cccc(C)c4)nc4ccc(Cl)nn34)ccn2)cc1", "note": "[Example 18, N-{4-[6-Chloro-2-(3-methylphenyl)imidazo[1,2-b]pyridazin-3-yl]pyridin-2-yl}-4-methoxybenzamide]", "values": [
      {"measurement": "melting point", "result": "204 to 205", "unit": "°C"}
    ]},
    {"smiles": "CCC(=O)N(C(=O)CC)c1cc(-c2c(-c3cccc(C)c3)nc3cccnn23)ccn1", "note": "[Example 22, N-{4-[2-(3-Methylphenyl)imidazo[1,2-b]pyridazin-3-yl]pyridin-2-yl}-N-propionylpropanamide]", "values": [
      {"measurement": "melting point", "result": "210 to 211", "unit": "°C"}
    ]},
    {"smiles": "Cc1cccc(-c2nc3cccnn3c2-c2ccnc(NC(=O)C(C)O)c2)c1", "note": "(stereo not drawn) [Example 29, 2-Hydroxy-N-{4-[2-(3-methylphenyl)imidazo[1,2-b]pyridazin-3-yl]pyridin-2-yl}propanamide]", "values": [
      {"measurement": "melting point", "result": "223 to 224", "unit": "°C"}
    ]},
    {"smiles": "Cc1cccc(-c2nc3cccnn3c2-c2ccnc(NC(=O)N3CCCCC3)c2)c1", "note": "[Example 31, N-{4-[2-(3-Methylphenyl)imidazo[1,2-b]pyridazin-3-yl]pyridin-2-yl}piperidine-1-carboxamide]", "values": [
      {"measurement": "melting point", "result": "173 to 175", "unit": "°C"}
    ]},
    {"smiles": "Cc1cccc(-c2nc3ccc(Cl)nn3c2-c2ccnc(N)n2)c1", "note": "[Example 34, 4-[6-Chloro-2-(3-methylphenyl)imidazo[1,2-b]pyridazin-3-yl]-2-pyrimidinamine]", "values": [
      {"measurement": "melting point", "result": "237 to 238", "unit": "°C"}
    ]},
    {"smiles": "Cc1cccc(-c2nc3cccnn3c2-c2ccnc(NCC3CCCCC3)c2)c1", "note": "[Example 38, N-(Cyclohexylmethyl)-4-[2-(3-methylphenyl)imidazo[1,2-b]pyridazin-3-yl]pyridin-2-amine]", "values": [
      {"measurement": "melting point", "result": "128 to 130", "unit": "°C"}
    ]}
  ]
}
